Patent US20140343048A1, “6-DIFLUOROMETHYL-5,6-DIHYDRO-2H-[1,4]OXAZIN-3-AMINE DERIVATIVES” (Janssen Pharmacetuica NV, priority 2011, published 2014)

Tests used:
[1] = biological target: recombinant BACE1 protein (Homo sapiens, UniProt P56817); assay: Biochemical FRET based assay; settings: recombinant BACE1 1 μg/ml, 120 minutes, room temperature, pH 5.0; read-out: Biochemical FRET based assay pIC50 (converted)
Excerpt: This assay is a Fluorescence Resonance Energy Transfer Assay (FRET) based assay. The substrate for this assay is an APP derived 13 amino acids peptide that contains the ‘Swedish’ Lys-Met/Asn-Leu mutation of the amyloid precursor protein (APP) beta-secretase cleavage site. This substrate also contains two fluorophores: (7-methoxycoumarin-4-yl) acetic acid (Mca) is a fluorescent donor with excitation wavelength at 320 nm and emission at 405 nm and 2,4-Dinitrophenyl (Dnp) is a proprietary quencher acceptor. […] Upon cleavage by BACE1, the fluorophore Mca is separated from the quenching group Dnp, restoring the full fluorescence yield of the donor. The increase in fluorescence is linearly related to the rate of proteolysis.
Briefly in a 384-well format recombinant BACE1 protein in a final concentration of 1 μg/ml is incubated for 120 minutes at room temperature with 10 μm substrate in incubation buffer (40 mM Citrate buffer pH 5.0, 0.04% PEG, 4% DMSO) in the absence or presence of compound. Next the amount of proteolysis is directly measured by fluorescence measurement at T=0 and T=120 (excitation at 320 nm and emission at 405 nm). Results are expressed in RFU (Relative Fluorescence Units), as difference between T120 and T0.
From this an IC50 value (inhibitory concentration causing 50% inhibition of activity) can be obtained.

[2] = tested on: Abeta total produced and secreted by human neuroblastoma SKNBE2 cells expressing hAPP695; assay: Cellular αLisa assay in SKNBE2 cells, Abeta total; assay type: cell-based; settings: incubated for 18 hours, read-out: Cellular αLisa assay in SKNBE2 cells Abetatotal pIC50 (converted)
Procedure: (§1) In two αLisa assays the levels of Abeta total and Abeta 1-42 produced and secreted into the medium of human neuroblastoma SKNBE2 cells are quantified. The assay is based on the human neuroblastoma SKNBE2 expressing the wild type Amyloid Precursor Protein (hAPP695). The compounds are diluted and added to these cells, incubated for 18 hours and then measurements of Abeta 1-42 and Abeta total are taken. Abeta total and Abeta 1-42 are measured by sandwich αLisa. αLisa is a sandwich assay using biotinylated antibody AbN/25 attached to streptavidin coated beads and antibody Ab4G8 or cAb42/26 conjugated acceptor beads for the detection of Abeta total and Abeta 1-42 respectively. In the presence of Abeta total or Abeta 1-42, the beads come into close proximity. The excitation of the donor beads provokes the release of singlet oxygen molecules that trigger a cascade of energy transfer in the acceptor beads, resulting in light emission. Light emission is measured after 1 hour incubation (excitation at […] and emission at 615 nm).
(§2) A best-fit curve is fitted by a minimum sum of squares method to the plot of % Controlmin versus compound concentration. From this an IC50 value (inhibitory concentration causing 50% inhibition of activity) can be obtained.

[3] = tested on: Abeta 1-42 produced and secreted by human neuroblastoma SKNBE2 cells expressing hAPP695; assay: Cellular αLisa assay in SKNBE2 cells, Abeta 42; assay type: cell-based; settings: incubated for 18 hours, read-out: Cellular αLisa assay in SKNBE2 cells Abeta 42 pIC50 (converted)
Procedure: as §1, §2

[4] = tested on: Aβ42 in the soluble fraction of brain homogenates; assay: In vivo efficacy: brain soluble Aβ42 lowering (ELISA); set-up: species or system mouse; settings: p.o., non-transgenic animals
Excerpt: (§3) To determine whether acute administration of an Aβ42 peptide lowering agent would reduce Aβ peptide levels in vivo, non-transgenic rodents, e.g. mice or rats were used. Animals treated with the Aβ peptide lowering agent were examined and compared to those untreated or treated with vehicle and brain levels of soluble Aβ42 and total Aβ were quantitated by standard techniques, for example, using ELISA. Treatment periods varied from hours (h) to days and were adjusted based on the results of the Aβ42 lowering once a time course of onset of effect could be established.
(§4) A typical protocol for measuring Aβ42 lowering in vivo is shown but it is only one of many variations that could be used to optimize the levels of detectable Aβ. For example, Aβ peptide lowering compounds were formulated in 20% hydroxypropyl β cyclodextrin. The Aβ peptide lowering agents were administered as a single oral dose (p.o.) or a single subcutaneous dose (s.c.) to overnight fasted animals. After a certain time, usually 2 or 4 h (as indicated in Table 7), the animals were sacrificed and A1342 levels were analysed.
(§5) Blood was collected by decapitation and exsanguinations in EDTA-treated collection tubes. […] The left hemisphere was stored at −18° C. for quantitative analysis of test compound levels. […]
(§6) Mouse brains from non-transgenic animals were resuspended in 8 volumes of 0.4% DEA (diethylamine)/50 mM NaCl containing protease inhibitors (Roche-11873580001 or 04693159001) per gram of tissue, e.g. for 0.158 g brain, add 1.264 ml of 0.4% DEA. […] Nine parts of supernatant were neutralized with 1 part 0.5 M Tris-HCl pH 6.8 and used to quantify Aβtotal and Aβ42.
(§7) To quantify the amount of Aβtotal and Aβ42 in the soluble fraction of the brain homogenates, Enzyme-Linked-Immunosorbent-Assays were used. […] Following this incubation and subsequent wash steps the ELISA for Aβ42 quantification was finished by addition of Quanta Blu fluorogenic peroxidase substrate according to the manufacturer's instructions (Pierce Corp., Rockford, Ill.). A reading was performed after 10 to 15 min (excitation 320 nm/emission 420 nm).

[5] = tested on: Aβtotal in the soluble fraction of brain homogenates; assay: In vivo efficacy: brain soluble Aβtotal lowering (ELISA); set-up: species or system mouse; settings: p.o., non-transgenic animals
Excerpt: as §3, §4, §5, §6
as §7, with “nm). […]” for “nm).”

[6] = 10 mpk, 2 h after administration
[7] = 30 mpk, 4 h after administration

Chain of recombinant BACE1 protein (P56817 46-501): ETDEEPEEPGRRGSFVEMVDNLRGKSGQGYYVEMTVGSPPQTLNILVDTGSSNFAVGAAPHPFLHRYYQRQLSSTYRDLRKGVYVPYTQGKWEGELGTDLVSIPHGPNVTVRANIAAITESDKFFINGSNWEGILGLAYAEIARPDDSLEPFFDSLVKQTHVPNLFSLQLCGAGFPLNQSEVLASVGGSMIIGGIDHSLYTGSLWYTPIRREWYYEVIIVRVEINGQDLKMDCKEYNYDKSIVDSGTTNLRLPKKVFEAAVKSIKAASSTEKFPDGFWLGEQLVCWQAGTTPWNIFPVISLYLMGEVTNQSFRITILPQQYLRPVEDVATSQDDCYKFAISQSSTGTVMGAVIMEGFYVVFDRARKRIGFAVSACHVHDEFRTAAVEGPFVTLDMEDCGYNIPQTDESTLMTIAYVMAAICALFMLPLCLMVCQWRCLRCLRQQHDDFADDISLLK

SMILES | IC50 [1] [nM] | IC50 [2] [nM] | IC50 [3] [nM] | melting point [°C] | Aβ42 (% Ctrl)_Mean [4, 6] [% Ctrl] | Aβtotal (% Ctrl)_Mean [5, 6] [% Ctrl] | Aβ42 (% Ctrl)_Mean [4, 7] [% Ctrl] | Aβtotal (% Ctrl)_Mean [5, 7] [% Ctrl]
CCC1(c2cc(NC(=O)c3cnc(OC)cn3)ccc2F)N=C(N)COC1C(F)F (racemic) [Compound 3, cis-rac-N-{3-[5-Amino-2-(difluoromethyl)-3-ethyl-3,6-dihydro-2H-1,4-oxazin-3-yl]-4-fluorophenyl}-5-methoxypyrazine-2-carboxamide] | 63.1 | 3.72 | 4.17 | – | – | – | – | –
COc1cnc(C(=O)Nc2ccc(F)c([C@@]3(C)N=C(N)COC3C(F)F)c2)cn1 (single isomer, unassigned) [Compound 1, N-{3-[(2R*,3R)-5-Amino-2-(difluoromethyl)-3-methyl-3,6-dihydro-2H-1,4-oxazin-3-yl]-4-fluorophenyl}-5-methoxypyrazine-2-carboxamide] | 35.5 | 4.27 | 4.17 | – | 62 | 59 | – | –
C[C@]1(c2cc(NC(=O)c3ccc(C#N)cn3)ccc2F)N=C(N)COC1C(F)F (single isomer, unassigned) [Compound 7, N-{3-[(2R*,3R)-5-Amino-2-(difluoromethyl)-3-methyl-3,6-dihydro-2H-1,4-oxazin-3-yl]-4-fluorophenyl}-5-cyanopyridine-2-carboxamide] | 53.7 | 3.09 | 3.47 | 230.9 | – | – | 53 | 55

Now from value to compound, other results behind:

IC50 [1] [nM] | IC50 [2] [nM] | IC50 [3] [nM] | melting point [°C] | SMILES | Aβ42 (% Ctrl)_Mean [4, 6] [% Ctrl] | Aβtotal (% Ctrl)_Mean [5, 6] [% Ctrl] | Aβ42 (% Ctrl)_Mean [4, 7] [% Ctrl] | Aβtotal (% Ctrl)_Mean [5, 7] [% Ctrl]
35.5 | 8.51 | 8.51 | 205.7 | C[C@]1(c2cc(NC(=O)c3ccc(F)cn3)ccc2F)N=C(N)COC1C(F)F (single isomer, unassigned) [Compound 2, N-{3-[(2R*,3R)-5-Amino-2-(difluoromethyl)-3-methyl-3,6-dihydro-2H-1,4-oxazin-3-yl]-4-fluorophenyl}-5-fluoropyridine-2-carboxamide] | 91 | 96 | – | –
427 | 129 | 129 | – | C[C@]1(c2cc(-c3cncnc3)ccc2F)N=C(N)COC1C(F)F (single isomer, unassigned) [Compound 4, (5R,6R*)-6-(Difluoromethyl)-5-(2-fluoro-5-pyrimidin-5-ylphenyl)-5-methyl-5,6-dihydro-2H-1,4-oxazin-3-amine] | – | – | – | –
457 | 117 | 117 | – | C[C@]1(c2cccc(-c3cncnc3)c2)N=C(N)COC1C(F)F (single isomer, unassigned) [Compound 5, (5R,6R*)-6-(Difluoromethyl)-5-methyl-5-(3-pyrimidin-5-ylphenyl)-5,6-dihydro-2H-1,4-oxazin-3-amine] | – | – | – | –
– | 3.39 | 3.31 | – | CC1(c2cc(NC(=O)c3ccc(Cl)cn3)ccc2F)N=C(N)COC1C(F)F (single isomer, unassigned) [Compound 6, N-{3-[(2R*3R)-5-Amino-2-(difluoromethyl)-3-methyl-3,6-dihydro-2H-1,4-oxazin-3-yl]-4-fluorophenyl}-5-chloropyridine-2-carboxamide] | – | – | – | –
